{
  "source": "patent US20020028792A1",
  "about": "“Combinations of bisphosphonates, estrogens and estrogenic agents” (American Home Products Corporation, priority 2000, published 2002)",
  "origin": "cited, not measured here",
  "settings": "Paget's disease of the bone; 30-mg tablets",
  "data": [
    {"smiles": "O=P(O)(O)C(O)(Cc1cccnc1)P(=O)(O)O", "note": "[Risedronate]", "values": [
      {"measurement": "effectiveness in clinical trials", "value": "effective"}
    ]}
  ]
}
